# Experiments:
# [1] = target: T1, CYP2C8 (Homo sapiens, UniProt P10632); experiment: In vitro CYP substrate assessment (victim potential); format: in vitro ADME
# T1 sequence (P10632 1-490): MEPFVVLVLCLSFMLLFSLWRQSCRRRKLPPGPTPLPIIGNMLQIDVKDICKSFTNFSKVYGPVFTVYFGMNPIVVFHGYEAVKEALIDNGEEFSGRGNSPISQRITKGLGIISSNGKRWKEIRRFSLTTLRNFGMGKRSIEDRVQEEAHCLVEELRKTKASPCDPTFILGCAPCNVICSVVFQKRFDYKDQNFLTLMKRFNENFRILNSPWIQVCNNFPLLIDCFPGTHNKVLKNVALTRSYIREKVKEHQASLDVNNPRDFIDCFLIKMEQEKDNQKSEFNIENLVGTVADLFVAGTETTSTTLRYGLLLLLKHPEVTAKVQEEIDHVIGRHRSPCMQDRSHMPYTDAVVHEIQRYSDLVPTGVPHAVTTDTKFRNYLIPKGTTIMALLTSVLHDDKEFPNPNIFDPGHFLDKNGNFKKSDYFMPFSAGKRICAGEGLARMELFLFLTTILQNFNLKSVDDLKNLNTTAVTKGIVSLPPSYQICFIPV
# [2] = Predicted plasma Cmax for 600 mg rodatristat ethyl BID (ELEVATE1/ELEVATE2); design: species or system human; conditions: for Unbound Cmax: 600 mg BID, conservative 1% free fraction; for Predicted mean maximum plasma concentration (Cmax) / Cmax: 600 mg rodatristat ethyl BID, plasma; for Cmax: read-out: Predicted mean maximum plasma concentration (Cmax)
# Description: The potential for rodatristat ethyl or rodatristat to be perpetrators of drug-drug interactions was assessed across in vitro CYP and transporter studies (Tables 1-4). […] This analysis was performed to assess the potential for clinically meaningful DDIs as recommended in FDA Draft Guidance: “In Vitro Metabolism- and Transporter-Mediated Drug-Drug Interaction Studies Guidance for Industry”; October 2017 (FDA, 2017).
# R1 and R3 values using free (non-protein bound) drug levels were calculated based on plasma protein binding (fraction bound, fb) of rodatristat ethyl (0.995) and rodatristat (0.991). The FDA Guidance is set forth In Vitro Metabolism- and Transporter-Mediated Drug-Drug Interaction Studies Guidance for Industry (2017). […] Parameters for the prediction are set forth below in Tables 5 and 6.
# [3] = target: T2, OATP1B1 (Homo sapiens, UniProt Q9Y6L6); experiment: In vitro transporter substrate assessment; format: in vitro ADME
# T2 construct: expressed in transfected cells; host or cells: HEK293
# T2 sequence (Q9Y6L6 1-691): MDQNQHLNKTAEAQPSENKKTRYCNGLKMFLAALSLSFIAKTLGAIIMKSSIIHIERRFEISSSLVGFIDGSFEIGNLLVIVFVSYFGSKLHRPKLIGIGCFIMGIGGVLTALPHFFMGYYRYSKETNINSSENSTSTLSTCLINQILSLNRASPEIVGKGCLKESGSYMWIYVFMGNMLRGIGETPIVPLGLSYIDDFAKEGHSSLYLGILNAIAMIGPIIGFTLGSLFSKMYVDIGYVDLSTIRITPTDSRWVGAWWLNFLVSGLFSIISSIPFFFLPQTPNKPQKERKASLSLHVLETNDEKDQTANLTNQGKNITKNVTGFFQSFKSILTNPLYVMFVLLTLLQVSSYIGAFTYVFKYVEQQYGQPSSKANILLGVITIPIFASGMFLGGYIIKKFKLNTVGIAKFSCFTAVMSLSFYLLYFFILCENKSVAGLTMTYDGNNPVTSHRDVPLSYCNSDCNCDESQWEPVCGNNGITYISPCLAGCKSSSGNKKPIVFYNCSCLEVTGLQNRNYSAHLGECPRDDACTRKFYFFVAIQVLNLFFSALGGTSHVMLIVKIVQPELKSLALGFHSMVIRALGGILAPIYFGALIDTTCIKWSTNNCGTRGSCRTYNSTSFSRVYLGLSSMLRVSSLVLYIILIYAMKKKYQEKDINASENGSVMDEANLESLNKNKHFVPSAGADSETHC
# [4] = target: T3, P-gp (Homo sapiens, UniProt P08183); experiment: Transporter inhibition, Caco-2 cells, digoxin probe; format: in vitro ADME; conditions: for Potential for interaction? (transporter inhibitor), P-gp: predicted @ 600 mg BID
# T3 construct: endogenous in cells; host or cells: Caco-2
# T3 sequence (P08183 whole entry): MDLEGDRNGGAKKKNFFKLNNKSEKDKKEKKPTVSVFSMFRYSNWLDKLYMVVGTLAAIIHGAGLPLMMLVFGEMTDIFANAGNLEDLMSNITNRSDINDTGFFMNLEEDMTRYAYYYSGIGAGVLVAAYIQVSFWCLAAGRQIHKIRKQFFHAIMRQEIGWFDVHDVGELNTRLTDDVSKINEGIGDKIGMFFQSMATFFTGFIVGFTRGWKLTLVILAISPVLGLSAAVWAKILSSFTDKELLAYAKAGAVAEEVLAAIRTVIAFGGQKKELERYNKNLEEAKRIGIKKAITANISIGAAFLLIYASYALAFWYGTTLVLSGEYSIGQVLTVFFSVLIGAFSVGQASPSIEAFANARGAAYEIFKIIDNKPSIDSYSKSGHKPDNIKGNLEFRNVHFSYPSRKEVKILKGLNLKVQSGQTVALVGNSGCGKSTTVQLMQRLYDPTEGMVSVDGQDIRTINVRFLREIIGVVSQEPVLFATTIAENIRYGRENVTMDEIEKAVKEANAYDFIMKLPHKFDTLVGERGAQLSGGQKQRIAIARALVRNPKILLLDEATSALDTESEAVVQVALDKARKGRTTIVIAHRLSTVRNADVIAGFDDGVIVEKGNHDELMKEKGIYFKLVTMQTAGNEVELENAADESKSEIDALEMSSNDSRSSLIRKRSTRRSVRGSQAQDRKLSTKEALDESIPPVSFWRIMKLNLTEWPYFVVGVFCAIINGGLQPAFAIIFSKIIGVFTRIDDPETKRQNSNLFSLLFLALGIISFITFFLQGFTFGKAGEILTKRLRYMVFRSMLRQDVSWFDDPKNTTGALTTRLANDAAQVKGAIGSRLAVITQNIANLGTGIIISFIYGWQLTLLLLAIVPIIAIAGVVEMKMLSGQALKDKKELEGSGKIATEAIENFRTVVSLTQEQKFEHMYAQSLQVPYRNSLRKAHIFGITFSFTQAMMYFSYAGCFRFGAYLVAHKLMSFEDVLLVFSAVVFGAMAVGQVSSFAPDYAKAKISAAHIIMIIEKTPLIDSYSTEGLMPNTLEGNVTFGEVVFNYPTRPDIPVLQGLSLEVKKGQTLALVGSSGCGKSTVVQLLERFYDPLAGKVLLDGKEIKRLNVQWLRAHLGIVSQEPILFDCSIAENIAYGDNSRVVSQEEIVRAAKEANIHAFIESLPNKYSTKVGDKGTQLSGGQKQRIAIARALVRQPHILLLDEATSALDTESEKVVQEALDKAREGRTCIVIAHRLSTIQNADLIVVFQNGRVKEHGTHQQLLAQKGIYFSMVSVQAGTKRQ
# Description: The competitive inhibition of specific transporters was investigated for RVT-1201 and KAR5417 in transporter-expressing in vitro systems (XT158039). Inhibition of P-gp was evaluated using a Caco-2 cell line with digoxin as probe substrate. Inhibition of OATP1B1 and OATP1B3 was evaluated using a HEK293 cell line expressing these transporters with estradiol-17β-glucuronide as probe substrate. In addition, inhibition of other transporters was also investigated (BCRP, OAT1, OAT3, OCT2, MATE1, MATE2-K). The IC50 estimates for P-gp (RVT-1201) and OATP1B1/3 (RVT-1201 and KAR5417) supported further evaluation of inhibition DDI potential using the PBPK model. For each IC50 estimate, substrate concentration and Km were used to estimate RVT-1201 and KAR5417 Ki with Equation 1 (Cheng and Prusoff, 1973).
Structure (SMILES),In vitro substrate? CYP2C8 [1],Unbound Cmax [2],Predicted mean maximum plasma concentration (Cmax) [2],Cmax [2],In vitro substrate? OATP1B1 [3],"IC50 ([4]; Caco 2 cells, read-out: In vitro IC50, P-gp)","Potential for interaction? (transporter inhibitor), P-gp [4]",Unbound Cmax ([2]; listed as rodatristat),Accumulation by OATP1B1 uptake transporter ([3]; 3 μM),Inhibition of P-gp (in words) [4]
"CCOC(=O)[C@@H]1CC2(CCN(c3cc(O[C@H](c4ccc(Cl)cc4-c4ccccc4)C(F)(F)F)nc(N)n3)CC2)CN1 [Rodatristat ethyl, (S)-ethyl 8-(2-amino-6-((R)-1-(5-chloro-[1,1′-biphenyl]-2-yl)-2,2,2-trifluoroethoxy)pyrimidin-4-yl)-2,8-diazaspiro[4.5]decane-3-carboxylate]",No,2.5 nM,149 ng/mL,252 nM,not a substrate and No,3.32 µM,Yes,,,
"Nc1nc(O[C@H](c2ccc(Cl)cc2-c2ccccc2)C(F)(F)F)cc(N2CCC3(CC2)CN[C@H](C(=O)O)C3)n1 [Rodatristat, (S)-8-(2-amino-6-((R)-1-(5-chloro-[1,1′-biphenyl]-2-yl)-2,2,2-trifluoroeth-oxy)pyrimidin-4-yl)-2,8-diazaspiro[4.5]decane-3-carboxylic acid]",No,20 nM,1130 ng/mL,2010 nM,is an in vitro substrate and Yes,,No,20.1 nM,2.22 fold,not an inhibitor
